In US9962369B2, “Methods and compositions for transdermal delivery” (SPRAYABLE HOLDINGS, INC., priority 2014, dated 2018):

Tested on: human skin tissue
Assay: Penetration rate of AI compound in AI-helper composition through human skin in vitro, modified Franz cells
Format: in vitro ADME
Conditions: for Skin penetration rate of alpha-lipoic acid: 20° C.; for Skin penetration rate of Al compound: Al compound 0.5% w/v; for Skin penetration rate of Al compound / Skin penetration rate of AI compound: 25 °C
Procedure: Penetration rate of AI compound in the AI-helper composition through human skin were measured in vitro by modified Franz cells. A Franz cell had two chambers: the top sample chamber and the bottom receiving chamber. The human skin tissue (450-500 μm thick) that separated the top and the receiving chambers was isolated from the anterior or posterior thigh areas.

[1] = 2-(Diethylamino)ethyl 2-(4-isobutylphenyl)propionate hydrochloride 6% w/v, water
[2] = D-Phenylalanine isopropyl ester hydrochloride 6% w/v, water
[3] = Dialkylaminoalkyl 2-(4-isobutylphenyl)propionate: None
[4] = L-Phenylalanine isopropyl ester hydrochloride 6% w/v, water
[5] = no isoleucine ester (None), AI compound 0.5 % w/v in water
[6] = no leucine ester (None), AI compound 0.5 % w/v in water
[7] = no tryptophan ester (None), AI compound 0.5 % w/v in water
[8] = with D-isoleucine isopropyl ester hydrochloride 6 % w/v in water, AI compound 0.5 % w/v
[9] = with D-leucine isopropyl ester hydrochloride 6 % w/v in water, AI compound 0.5 % w/v
[10] = with D-tryptophan isopropyl ester hydrochloride 6 % w/v in water, AI compound 0.5 % w/v
[11] = with L-isoleucine isopropyl ester hydrochloride 6 % w/v in water, AI compound 0.5 % w/v
[12] = with L-leucine isopropyl ester hydrochloride 6 % w/v in water, AI compound 0.5 % w/v
[13] = with L-tryptophan isopropyl ester hydrochloride 6 % w/v in water, AI compound 0.5 % w/v

Compound | Skin penetration rate of Al compound [1] [μg/cm^2/h] | Skin penetration rate of Al compound [2] [μg/cm^2/h] | Skin penetration rate of Al compound [3] [μg/cm^2/h] | Skin penetration rate of Al compound [4] [μg/cm^2/h] | Skin penetration rate of Al compound (Phenylalanine ester: None) [μg/cm^2/h] | Skin penetration rate of AI compound [5] [μg/cm^2/h] | Skin penetration rate of AI compound [6] [μg/cm^2/h] | Skin penetration rate of AI compound [7] [μg/cm^2/h] | Skin penetration rate of AI compound [8] [μg/cm^2/h] | Skin penetration rate of AI compound [9] [μg/cm^2/h] | Skin penetration rate of AI compound [10] [μg/cm^2/h] | Skin penetration rate of AI compound [11] [μg/cm^2/h] | Skin penetration rate of AI compound [12] [μg/cm^2/h] | Skin penetration rate of AI compound [13] [μg/cm^2/h] | other results
O=C(O)CCCCC1CCSS1 (stereo not drawn) [Alpha-lipoic acid] | 30.478 ± 2.982 | 31.796 ± 3.176 | 0.056 ± 0.032 | 32.878 ± 3.568 | 0.058 ± 0.047 | 0.057 ± 0.036 | 0.051 ± 0.023 | 0.071 ± 0.063 | 28.013 ± 2.078 | 27.476 ± 2.116 | 35.456 ± 2.476 | 28.897 ± 2.126 | 28.377 ± 2.378 | 36.378 ± 2.978 | Skin penetration rate of alpha-lipoic acid (0.5% alpha-lipoic acid without helper esters): 0.071 ± 0.063 μg/cm^2/h; Skin penetration rate of alpha-lipoic acid (alpha-lipoic acid 0.5% w/v, Tryptophan isopropyl ester•HA 6% w/v, HA = 1/2H2SO4, water): 33.928 ± 2.876 μg/cm^2/h; Skin penetration rate of alpha-lipoic acid (alpha-lipoic acid 0.5% w/v, Tryptophan isopropyl ester•HA 6% w/v, HA = 1/3H3PO4, water): 34.321 ± 2.867 μg/cm^2/h; Skin penetration rate of alpha-lipoic acid (alpha-lipoic acid 0.5% w/v, Tryptophan isopropyl ester•HA 6% w/v, HA = 2/3H3PO4, water): 34.691 ± 3.511 μg/cm^2/h; Skin penetration rate of alpha-lipoic acid (alpha-lipoic acid 0.5% w/v, Tryptophan isopropyl ester•HA 6% w/v, HA = Acetic acid, water): 35.006 ± 2.892 μg/cm^2/h; Skin penetration rate of alpha-lipoic acid (alpha-lipoic acid 0.5% w/v, Tryptophan isopropyl ester•HA 6% w/v, HA = Benzoic acid, water): 34.665 ± 3.019 μg/cm^2/h; Skin penetration rate of alpha-lipoic acid (alpha-lipoic acid 0.5% w/v, Tryptophan isopropyl ester•HA 6% w/v, HA = Butyric acid, water): 35.178 ± 3.598 μg/cm^2/h; Skin penetration rate of alpha-lipoic acid (alpha-lipoic acid 0.5% w/v, Tryptophan isopropyl ester•HA 6% w/v, HA = Citric acid, water): 35.371 ± 3.587 μg/cm^2/h; Skin penetration rate of alpha-lipoic acid (alpha-lipoic acid 0.5% w/v, Tryptophan isopropyl ester•HA 6% w/v, HA = H2SO4, water): 33.780 ± 2.891 μg/cm^2/h; Skin penetration rate of alpha-lipoic acid (alpha-lipoic acid 0.5% w/v, Tryptophan isopropyl ester•HA 6% w/v, HA = HBr, water): 35.211 ± 3.285 μg/cm^2/h; Skin penetration rate of alpha-lipoic acid (alpha-lipoic acid 0.5% w/v, Tryptophan isopropyl ester•HA 6% w/v, HA = HCl, water): 35.456 ± 2.476 μg/cm^2/h; Skin penetration rate of alpha-lipoic acid (alpha-lipoic acid 0.5% w/v, Tryptophan isopropyl ester•HA 6% w/v, HA = HF, water): 34.673 ± 3.156 μg/cm^2/h; Skin penetration rate of alpha-lipoic acid (alpha-lipoic acid 0.5% w/v, Tryptophan isopropyl ester•HA 6% w/v, HA = HI, water): 34.467 ± 2.583 μg/cm^2/h; Skin penetration rate of alpha-lipoic acid (alpha-lipoic acid 0.5% w/v, Tryptophan isopropyl ester•HA 6% w/v, HA = Lactic acid, water): 35.007 ± 2.879 μg/cm^2/h
CC1=C(/C=C/C(C)=C/C=C/C(C)=C/C=C/C=C(C)/C=C/C=C(C)/C=C/C2=C(C)C(=O)[C@@H](O)CC2(C)C)C(C)(C)C[C@H](O)C1=O [Astaxanthin] | 12.331 ± 2.182 | 12.431 ± 2.178 | 0.019 ± 0.010 | 12.341 ± 2.042 | 0.019 ± 0.011 | 0.013 ± 0.009 | 0.010 ± 0.008 | 0.012 ± 0.013 | 11.354 ± 2.452 | 11.134 ± 2.183 |  | 11.431 ± 2.312 | 11.251 ± 2.112 |  | 
CC1=C(/C=C/C(C)=C/C=C/C(C)=C/C=C/C=C(C)/C=C/C=C(C)/C=C/C2=C(C)CCCC2(C)C)C(C)(C)CCC1 [Beta Carotene] | 10.138 ± 2.381 | 10.658 ± 2.003 | 0.015 ± 0.011 | 10.772 ± 2.174 | 0.019 ± 0.008 | 0.015 ± 0.007 | 0.012 ± 0.011 | 0.009 ± 0.013 | 9.471 ± 2.323 | 9.501 ± 2.763 | 11.598 ± 2.173 | 9.412 ± 2.781 | 9.252 ± 2.321 | 11.372 ± 2.326 | 
Nc1nc2ncc(CNc3ccc(C(=O)N[C@@H](CCC(=O)O)C(=O)O)cc3)nc2c(=O)[nH]1 [Folic acid] | 6.235 ± 1.356 | 6.771 ± 2.872 | 0.012 ± 0.007 | 6.757 ± 3.012 | 0.012 ± 0.007 | 0.012 ± 0.007 | 0.007 ± 0.012 | 0.009 ± 0.011 | 5.598 ± 2.812 | 5.523 ± 3.012 | 6.725 ± 3.327 | 5.793 ± 3.116 | 5.786 ± 3.162 | 6.915 ± 3.452 | 

Continued, in another order:

Skin penetration rate of Al compound [1] [μg/cm^2/h] | Skin penetration rate of Al compound [2] [μg/cm^2/h] | Skin penetration rate of Al compound [3] [μg/cm^2/h] | Skin penetration rate of Al compound [4] [μg/cm^2/h] | Skin penetration rate of Al compound (Phenylalanine ester: None) [μg/cm^2/h] | Skin penetration rate of AI compound [5] [μg/cm^2/h] | Skin penetration rate of AI compound [6] [μg/cm^2/h] | Skin penetration rate of AI compound [7] [μg/cm^2/h] | Skin penetration rate of AI compound [8] [μg/cm^2/h] | Skin penetration rate of AI compound [9] [μg/cm^2/h] | Skin penetration rate of AI compound [10] [μg/cm^2/h] | Skin penetration rate of AI compound [11] [μg/cm^2/h] | Skin penetration rate of AI compound [12] [μg/cm^2/h] | Skin penetration rate of AI compound [13] [μg/cm^2/h] | Compound | other results
16.356 ± 3.011 | 17.526 ± 2.451 | 0.012 ± 0.010 | 17.358 ± 2.259 | 0.016 ± 0.009 | 0.013 ± 0.011 | 0.011 ± 0.008 | 0.008 ± 0.013 | 14.581 ± 2.183 | 14.121 ± 2.131 | 18.126 ± 3.451 | 14.698 ± 2.321 | 14.128 ± 2.119 | 17.978 ± 3.479 | N[C@@H](CCC(=O)N[C@@H](CS)C(=O)NCC(=O)O)C(=O)O [Glutathione] | 
18.568 ± 3.112 | 18.745 ± 3.112 | 0.015 ± 0.011 | 18.978 ± 2.135 | 0.015 ± 0.011 | 0.016 ± 0.010 | 0.013 ± 0.011 | 0.017 ± 0.021 |  | 16.028 ± 2.862 | 20.728 ± 3.962 | 16.236 ± 2.805 | 16.126 ± 3.005 | 20.177 ± 3.195 | Oc1ccc(C=Cc2cc(O)cc(O)c2)cc1 [Resveratrol] | 
8.711 ± 1.871 | 8.339 ± 2.178 | 0.012 ± 0.006 | 8.372 ± 2.237 | 0.011 ± 0.006 | 0.009 ± 0.007 | 0.008 ± 0.009 | 0.005 ± 0.008 | 7.521 ± 2.312 | 7.231 ± 2.386 | 9.131 ± 2.321 | 7.247 ± 2.076 | 7.175 ± 2.257 | 9.172 ± 2.117 | NCCS(=O)(=O)O [Taurine] | 
 | 16.531 ± 2.106 | 0.023 ± 0.027 | 16.751 ± 2.012 | 0.057 ± 0.011 | 0.022 ± 0.017 | 0.029 ± 0.035 | 0.059 ± 0.031 | 13.468 ± 2.211 |  | 17.131 ± 2.332 | 13.632 ± 2.125 |  | 17.251 ± 2.415 | Cc1ncc(CO)c(CO)c1O.Cl [Vitamin B6] | 
